Experimental data reported in BindingDB's records for doi:10.1016/S1074-5521(03)00159-5 (Merck Research Laboratories, 2003).
pIC50: −log10 of the molar value.

target: Mitogen-activated protein kinase 14 (Homo sapiens, UniProt Q16539); assay: Homogeneous Time-Resolved Fluorescence (HTRF) Enzyme Assay; settings: pH 7; 22 °C
Procedure: The HTRF signal is calculated as a ratio of the A-counts to B-counts. The signal produced is proportional to the amount of JNK3 or p38 kinase activity present during the kinase reaction phase.

Sequence of Mitogen-activated protein kinase 14 (Q16539 whole entry): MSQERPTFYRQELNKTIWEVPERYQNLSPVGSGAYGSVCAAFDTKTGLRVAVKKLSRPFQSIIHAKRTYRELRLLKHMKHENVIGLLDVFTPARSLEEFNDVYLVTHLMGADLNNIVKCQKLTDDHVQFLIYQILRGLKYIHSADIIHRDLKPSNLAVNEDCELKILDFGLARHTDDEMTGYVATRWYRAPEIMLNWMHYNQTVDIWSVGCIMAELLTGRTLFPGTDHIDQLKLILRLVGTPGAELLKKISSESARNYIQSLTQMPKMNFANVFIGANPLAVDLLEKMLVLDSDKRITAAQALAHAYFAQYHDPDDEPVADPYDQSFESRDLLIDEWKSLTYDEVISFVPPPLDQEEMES

pIC50 | SMILES
8.40 | CCCn1c(C2CCNCC2)nc(-c2ccc(Cl)c(Cl)c2)c1-c1ccnc(NC2CCCCC2)n1
< 4.40 | Oc1ccc(-c2cnc3ccc4ccncc4c3c2)cc1 [4-(2,7-phenanthrolin-9-yl)phenol]
10.11 | CCCn1c(C2CCN(C)CC2)nc(-c2ccc(Cl)c(Cl)c2)c1-c1ccnc(NC2CC2)n1
